Data published in patent publication US6737383B1, “Herbicidal oxadiazolidines” (priority 1999, dated 2004).

Tests used:
blackgrass = experiment: Test B pre/postemergence blackgrass; format: in vivo, Alopecurus myosuroides
How it was run: (§1)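 Herbicidal effect was estimated by eye on a ten-point control scale after plants spent twelve to sixteen days in a greenhouse following soil or foliar treatment. Foliar sprays targeted plants at one to four leaves; all doses were formulated in a non-phytotoxic solvent with surfactant.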

smallflower flatsedge = experiment: Test B flood test smallflower flatsedge; format: in vivo, Cyperus difformis
How it was run: (§2)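 Flood test on plants grown to the 2-leaf stage; treated plants kept in greenhouse twelve to sixteen days, then visually rated against controls on a 0 (no effect) to 10 (complete control) scale.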

morningglory = experiment: Test B pre/postemergence morningglory; format: in vivo, Ipomoea hederacea
How it was run: as §1

wheat = experiment: Test B pre/postemergence wheat; format: in vivo, Triticum aestivum
How it was run: as §1

surinam grass = experiment: Test B pre/postemergence surinam grass; format: in vivo, Brachiaria decumbens
How it was run: as §1

rice = experiment: Test B flood test rice; format: in vivo, Oryza sativa
How it was run: as §2

pigweed = experiment: Test B pre/postemergence pigweed; format: in vivo, Amaranthus retroflexus
How it was run: as §1

giant foxtail = experiment: Test B pre/postemergence giant foxtail; format: in vivo, Setaria faberii
How it was run: as §1

crabgrass = experiment: Test B pre/postemergence crabgrass; format: in vivo, Digitaria sanguinalis
How it was run: as §1

purple nutsedge = experiment: Test B pre/postemergence purple nutsedge; format: in vivo, Cyperus rotundus
How it was run: as §1

bedstraw = experiment: Test B pre/postemergence bedstraw; format: in vivo, Galium aparine
How it was run: as §1

corn = experiment: Test B pre/postemergence corn; format: in vivo, Zea mays
How it was run: as §1

sugar beet = experiment: Test B pre/postemergence sugar beet; format: in vivo, Beta vulgaris
How it was run: as §1

rape = experiment: Test B pre/postemergence rape; format: in vivo, Brassica napus
How it was run: as §1

bamyardgrass = experiment: Test B flood test barnyardgrass; format: in vivo, Echinochloa crus-galli
How it was run: as §2

wild oat = experiment: Test B pre/postemergence wild oat; format: in vivo, Avena fatua
How it was run: as §1

[1] = Preemergence, Rate 62 g/ha, scale of 0 to 10 where 0 is no effect and 10 is complete control
[2] = Preemergence, Rate 125 g/ha, 0 is no effect, 10 is complete control
[3] = Preemergence, Rate 250 g/ha, scale 0 to 10, 0 is no effect, 10 is complete control
[4] = Preemergence, Rate 500 g/ha, scale of 0 to 10 where 0 is no effect and 10 is complete control
[5] = Rate 62 g/ha, Postemergence, scale of 0 to 10 where 0 is no effect and 10 is complete control
[6] = Rate 125 g/ha, Postemergence, scale 0 to 10
[7] = Rate 500 g/ha, Postemergence, scale 0 to 10
[8] = Rate 62 g/ha, headed Pre-emergence (flood test species), scale 0 to 10 (0 no effect, 10 complete control)
[9] = Rate 125 g/ha, Pre-emergence, flood test species, scale 0 to 10 where 0 is no effect and 10 is complete control
[10] = Rate 250 g/ha, Pre-emergence, flood-test species, scale 0 to 10, 0 is no effect, 10 is complete control
[11] = Rate 500 g/ha, Pre-emergence, flood test species, scale 0 to 10 (0 no effect, 10 complete control)

CC(C)N(C(=O)n1oc(=O)n(Cc2ccco2)c1=O)c1ccc(F)cc1F [Compound 208]
Blackgrass plant response rating (blackgrass; [1]): 0 | Blackgrass plant response rating (0 to 10 scale) (blackgrass; [2]): 0 | Blackgrass plant response rating (blackgrass; [3]): 0 | Plant response rating, Blackgrass (blackgrass; [4]): 3 | Blackgrass plant response rating (blackgrass; [5]): 0 | Blackgrass plant response rating (blackgrass; [6]): 0 | Plant response rating (0 to 10; 0 is no effect, 10 is complete control), Blackgrass (blackgrass; Rate 250 g/ha, Postemergence): 0 | Blackgrass plant response rating (blackgrass; [7]): 7 | S. Flatsedge plant response rating (smallflower flatsedge; [8]): 0 | S. Flatsedge plant response rating (smallflower flatsedge; [9]): 0 | S. Flatsedge plant response rating (smallflower flatsedge; [10]): 0 | S. Flatsedge plant response rating (smallflower flatsedge; [11]): 0 | Morningglory plant response rating (morningglory; [1]): 0 | Morningglory plant response rating (0 to 10 scale) (morningglory; [2]): 0 | Morningglory plant response rating (morningglory; [3]): 0 | Plant response rating, Morningglory (morningglory; [4]): 0 | Morningglory plant response rating (morningglory; [5]): 1 | Morningglory plant response rating (morningglory; [6]): 1 | Plant response rating (0 to 10; 0 is no effect, 10 is complete control), Morningglory (morningglory; Rate 250 g/ha, Postemergence): 1 | Morningglory plant response rating (morningglory; [7]): 3 | Wheat plant response rating (wheat; [1]): 0 | Wheat plant response rating (wheat; [3]): 0 | Plant response rating, Wheat (wheat; [4]): 0 | Wheat plant response rating (wheat; [5]): 0 | Wheat plant response rating (wheat; [6]): 0 | Plant response rating (0 to 10; 0 is no effect, 10 is complete control), Wheat (wheat; Rate 250 g/ha, Postemergence): 0 | B. signalgrass plant response rating (surinam grass; [1]): 0 | B. signalgrass plant response rating (0 to 10 scale) (surinam grass; [2]): 0 | B. signalgrass plant response rating (surinam grass; [3]): 0 | Plant response rating, B. signalgrass (surinam grass; [4]): 0 | B. signalgrass plant response rating (surinam grass; [5]): 0 | B. signalgrass plant response rating (surinam grass; Rate 125 g/ha, Postemergence, scale 0 (no effect) to 10 (complete control)): 0 | Plant response rating (0 to 10; 0 is no effect, 10 is complete control), B. signalgrass (surinam grass; Rate 250 g/ha, Postemergence): 0 | B. signalgrass plant response rating (surinam grass; Rate 500 g/ha, Postemergence, scale 0 to 10, 0 no effect, 10 complete control): 3 | Rice plant response rating (rice; [8]): 0 | Rice plant response rating (rice; [9]): 0 | Rice plant response rating (rice; [10]): 0 | Rice plant response rating (rice; [11]): 0 | Redroot pigweed plant response rating (pigweed; [1]): 0 | Redroot pigweed plant response rating (0 to 10 scale) (pigweed; [2]): 0 | Redroot pigweed plant response rating (pigweed; [3]): 0 | Plant response rating, Redroot pigweed (pigweed; [4]): 2 | Redroot pigweed plant response rating (pigweed; [5]): 0 | Redroot pigweed plant response rating (pigweed; [6]): 0 | Plant response rating (0 to 10; 0 is no effect, 10 is complete control), Redroot pigweed (pigweed; Rate 250 g/ha, Postemergence): 0 | Redroot pigweed plant response rating (pigweed; [7]): 0 | Giant foxtail plant response rating (giant foxtail; [1]): 2 | Giant foxtail plant response rating (0 to 10 scale) (giant foxtail; [2]): 8 | Giant foxtail plant response rating (giant foxtail; [3]): 9 | Plant response rating, Giant foxtail (giant foxtail; [4]): 10 | Giant foxtail plant response rating (giant foxtail; [5]): 0 | Giant foxtail plant response rating (giant foxtail; [6]): 0 | Plant response rating (0 to 10; 0 is no effect, 10 is complete control), Giant foxtail (giant foxtail; Rate 250 g/ha, Postemergence): 0 | Giant foxtail plant response rating (giant foxtail; [7]): 1 | Crabgrass plant response rating (crabgrass; [1]): 4 | Crabgrass plant response rating (0 to 10 scale) (crabgrass; [2]): 5 | Crabgrass plant response rating (crabgrass; [3]): 6 | Plant response rating, Crabgrass (crabgrass; [4]): 6 | Crabgrass plant response rating (crabgrass; [5]): 0 | Crabgrass plant response rating (crabgrass; [6]): 0 | Plant response rating (0 to 10; 0 is no effect, 10 is complete control), Crabgrass (crabgrass; Rate 250 g/ha, Postemergence): 0 | Crabgrass plant response rating (crabgrass; [7]): 3 | Nutsedge plant response rating (purple nutsedge; [1]): 0 | Nutsedge plant response rating (0 to 10 scale) (purple nutsedge; [2]): 0 | Nutsedge plant response rating (purple nutsedge; [3]): 0 | Plant response rating, Nutsedge (purple nutsedge; [4]): 0 | Nutsedge plant response rating (purple nutsedge; [5]): 0 | Nutsedge plant response rating (purple nutsedge; [6]): 0 | Plant response rating (0 to 10; 0 is no effect, 10 is complete control), Nutsedge (purple nutsedge; Rate 250 g/ha, Postemergence): 0 | Nutsedge plant response rating (purple nutsedge; [7]): 0 | Bedstraw plant response rating (bedstraw; [1]): 0 | Bedstraw plant response rating (0 to 10 scale) (bedstraw; [2]): 0 | Bedstraw plant response rating (bedstraw; [3]): 0 | Plant response rating, Bedstraw (bedstraw; [4]): 0 | Bedstraw plant response rating (bedstraw; [5]): 0 | Bedstraw plant response rating (bedstraw; [6]): 0 | Plant response rating (0 to 10; 0 is no effect, 10 is complete control), Bedstraw (bedstraw; Rate 250 g/ha, Postemergence): 0 | Bedstraw plant response rating (bedstraw; [7]): 5 | Corn plant response rating (corn; [1]): 0 | Corn plant response rating (0 to 10 scale) (corn; [2]): 0 | Corn plant response rating (corn; [3]): 0 | Plant response rating, Corn (corn; [4]): 0 | Corn plant response rating (corn; [5]): 0 | Corn plant response rating (corn; [6]): 0 | Plant response rating (0 to 10; 0 is no effect, 10 is complete control), Corn (corn; Rate 250 g/ha, Postemergence): 0 | Corn plant response rating (corn; [7]): 0 | Sugarbeets plant response rating (sugar beet; [1]): 0 | Sugarbeets plant response rating (0 to 10 scale) (sugar beet; [2]): 0 | Sugarbeets plant response rating (sugar beet; [3]): 0 | Plant response rating, Sugarbeets (sugar beet; [4]): 0 | Sugarbeets plant response rating (sugar beet; [5]): 0 | Sugarbeets plant response rating (sugar beet; [6]): 0 | Plant response rating (0 to 10; 0 is no effect, 10 is complete control), Sugarbeets (sugar beet; Rate 250 g/ha, Postemergence): 0 | Sugarbeets plant response rating (sugar beet; [7]): 0 | Rape plant response rating (rape; [1]): 0 | Rape plant response rating (0 to 10 scale) (rape; [2]): 0 | Rape plant response rating (rape; [3]): 0 | Plant response rating, Rape (rape; [4]): 0 | Rape plant response rating (rape; [5]): 0 | Rape plant response rating (rape; [6]): 0 | Plant response rating (0 to 10; 0 is no effect, 10 is complete control), Rape (rape; Rate 250 g/ha, Postemergence): 0 | Rape plant response rating (rape; [7]): 0 | Barnyardgrass plant response rating (bamyardgrass; [8]): 0 | Barnyardgrass plant response rating (bamyardgrass; [9]): 0 | Barnyardgrass plant response rating (bamyardgrass; [10]): 0 | Barnyardgrass plant response rating (bamyardgrass; [11]): 0 | Wild oats plant response rating (wild oat; [1]): 0 | Wild oats plant response rating (wild oat; [3]): 0 | Plant response rating, Wild oats (wild oat; [4]): 3 | Wild oats plant response rating (wild oat; [5]): 0 | Wild oats plant response rating (wild oat; [6]): 0 | Plant response rating (0 to 10; 0 is no effect, 10 is complete control), Wild oats (wild oat; Rate 250 g/ha, Postemergence): 0
